The values that follow come from patent US8236826B2, “Diarylether derivatives as antitumor agents” (Otsuka Pharmaceutical Co., Ltd., priority 2005, dated 2012).

A value given as a limit tells only on which side of the number the result lay.

Experiment [1] concerns human renal cancer cells (Caki-2). The experiment in a line: Anti-proliferative effect on human renal cancer cells, sulforhodamine B method. The experiment is classed as cell-based. To be noted: Caki-2 cells.
For experiment [2], the system named is human Burkitt's lymphoma cells (Daudi). Nature of the experiment: Cell proliferation suppression activity on human Burkitt's lymphoma cells, MTT assay. The note with it: applied dose 10 nM. It is filed as cell-based. How it is done:
[The source words this procedure for another cell line and reports this cell line under the same test.] (§1) Anti-proliferative effect of test compounds on human chronic myelogenous leukemia cells (KU812) was determined by an MTT assay in accordance with the method described in Singh A K et al. (Cancer Lett. 1996 Oct. 1; 107(1): 109-15). To describe more specifically, KU812 cells were seeded on RPMI 1640 medium containing 10% fetal bovine serum of a 96-well microplate, cultured at 37° C. for 24 hours in the presence of a 5% carbon dioxide gas (CO2). Thereafter, a test compound was added to the wells and the cells were cultured for a further 5 days. After the incubation, 10 μl of 5 mg/mL MTT ([…]) was added to the wells. After the cells were cultured for 4 hours, 100 μl of 0.01N HCl containing 10% SDS (sodium dodecyl sulfate) was added to the wells, which was further cultured overnight. Subsequently, OD was measured at a measurement wavelength of 570 nm and a reference wavelength of 690 nm to obtain the difference (A) in OD. Furthermore, OD of a control well (containing no cells) was measured at a measurement wavelength of 570 nm and a reference wavelength of 690 nm to obtain the difference (B) in OD. The difference (A−B) was regarded as the cell proliferation activity of each of the wells. […]

Experiment [3] deals with human breast cancer cells (ZR-75-1). The experiment in a line: Anti-proliferative effect on human breast cancer cells, sulforhodamine B method. It is filed as cell-based. The note with it: ZR-75-1 cells. From the text: (§2) Anti-proliferative effect of test compounds on human hepatic cancer cells (HuH-7), human lung cancer cells (EBC-1), human colorectal cancer cells (HCT116), human prostatic cancer cells (22Rv1), human pancreatic cancer cells (MIA PaCa-2), human stomach cancer cells (MKN45), human breast cancer cells (ZR-75-1) was checked by a sulforhodamine B method in accordance with Skehan P et al. (J. Natl. Cancer Inst. 1990 Jul. 4; 82(13): 1107-12). Explanation will be made taking HuH-7 cells as an example.
(§3) HuH-7 cells were seeded on DMEM medium (Dulbeco's modified Eagle Medium) containing 10% fetal bovine serum of a 96-well microplate and cultured at 37° C. for 24 hours in the presence of 5% carbon dioxide gas (CO2). Thereafter, a test compound was added to the wells and the cells were cultured for a further 5 days. […]
(§4) To each of the wells, a 1% aqueous acetic acid solution containing 0.4% sulforhodamine B was added and the wells were allowed to stand still at room temperature for 20 to 30 minutes. […] Subsequently, OD (optical density) was measured at a measurement wavelength of 492 nm and a reference wavelength of 690 nm to obtain the difference (A) in OD thus measured. Furthermore, the OD of a control well (containing no cells) was measured at a measurement wavelength of 492 nm and a reference wavelength of 690 nm to obtain the difference (B) in OD. […]

Experiment [4] concerns human lung cancer cells (EBC-1). The experiment in a line: Anti-proliferative effect on human lung cancer cells, sulforhodamine B method. The experiment is classed as cell-based. To be noted: EBC-1 cells.
Source text: as §2, §3, §4
(The SRB assay estimates cell density from bound dye.)

In experiment [5] the test system is human prostatic cancer cells (22Rv1). Nature of the experiment: Anti-proliferative effect on human prostatic cancer cells, sulforhodamine B method. It is filed as cell-based. The note with it: 22Rv1 cells.
Source text: as §2, §3, §4

The test system of experiment [6] is human stomach cancer cells (MKN45). Nature of the experiment: Anti-proliferative effect on human stomach cancer cells, sulforhodamine B method. The experiment is classed as cell-based. The note with it: MKN-45.
Source text: as §2, §3, §4

The test system of experiment [7] is human lymphoma cells (U937). Nature of the experiment: Cell proliferation suppression activity on human lymphoma cells, MTT assay. The experiment is classed as cell-based. The note with it: applied dose 10 nM. The method, then: [The source words this procedure for another cell line and reports this cell line under the same test.] as §1
(In general: Tetrazolium assays rely on reduction of a dye to a coloured formazan, in cell work by metabolically active cells.)

Experiment [8] has as its system human chronic myelogenous leukemia cells (KU812). Nature of the experiment: Anti-proliferative effect on human chronic myelogenous leukemia cells, MTT assay. It is filed as cell-based. The note with it: 120 h, cultured 5 days with compound. The method, then: as §1
The subject of experiment [9] is human hepatic cancer cells (HuH-7). Nature of the experiment: Anti-proliferative effect on human hepatic cancer cells, sulforhodamine B method. It is filed as cell-based. The note with it: 120 h, HuH-7 cells, cultured 5 days with compound.
Source text: as §2, §3, §4

For experiment [10], the system named is human multiple myeloma cells (IM-9). Nature of the experiment: Anti-proliferative effect on human multiple myeloma cells, MTT assay. It is filed as cell-based. The note with it: IM-9 cells. The method, then: [The source words this procedure for another cell line and reports this cell line under the same test.] as §1
The subject of experiment [11] is human acute myelogenous leukemia cells (KG-1). Nature of the experiment: Anti-proliferative effect on human acute myelogenous leukemia cells, MTT assay. To be noted: KG-1 cells. The experiment is classed as cell-based. The method, then:
[The source words this procedure for another cell line and reports this cell line under the same test.] as §1

Experiment [12] has as its system human colorectal cancer cells (HCT116). The experiment in a line: Anti-proliferative effect on human colorectal cancer cells, sulforhodamine B method. It is filed as cell-based. The note with it: HCT-116.
Source text: as §2, §3, §4

Experiment [13] deals with human pancreatic cancer cells (MIA PaCa-2). The experiment in a line: Anti-proliferative effect on human pancreatic cancer cells, sulforhodamine B method. To be noted: MIA PaCa-2 cells. The experiment is classed as cell-based.
Source text: as §2, §3, §4

Experiment [14] concerns Human hepatic cancer cells HuH-7. The experiment in a line: Anti-tumor effect on HuH-7 cells transplanted into SCID mice. The experiment is classed as in vivo. The note with it: 100 mg/kg/day orally once a day for 9 days, HuH-7 tumor in SCID mice. The method, then:
Pharmacological Test 2 Anti-Cancer Effect […] on Hepatic Cancer Cells HuH-7
Human hepatic cancer cells HuH-7 were transplanted into SCID mice (a group of 6 female mice). Anti-tumor effect of test compounds according to the present invention was checked. To describe more specifically, the cancer cells were cultured in advance and a cell suspension solution containing the cancer cells in a concentration of 2.5×10^7 cells/mL was prepared. Then, 0.2 mL of the cell suspension solution was injected into the right axillary region of each of the mice to transplant the cancer cells. In this manner, cancer-bearing mice were prepared. […] Next day after completion of administration, the volume of a tumor was measured. The ratio in volume of a tumor at the time of grouping relative to that measured next day after completion of administration was calculated to obtain a relative tumor volume of each group. Then, the ratio (T/C %) in relative tumor volume of […] (administrated with a test compound) was calculated and used as an index of the effect. Relative tumor volume=tumor volume measured on the next day of completion of administration/tumor volume measured at the time of grouping (T/C %)=(an average value of relative tumor volume of test compound administration group)/(an average value of relative tumor volume of a control group)×100

As for `Cc1cc(N(C)CC(=O)N2CCN(Cc3ccc4c(c3)OCO4)CC2)ccc1Oc1ccc(NC(=O)c2ccc(C(F)(F)F)cc2)cn1` [Example 1503, N-[6-(4-{[2-(4-piperonylpiperazin-1-yl)-2-oxoethyl]methylamino}-2-methylphenoxy)pyridin-3-yl]-4-trifluoromethylbenzamide], the half-inhibitory concentration (IC50) in [1], in experiment [3], in [4], in [5], in experiment [6] and in experiment [8] was less than 100 nM each time. Moreover, the concentration for half-maximal inhibition (IC50) in experiment [9], in experiment [10], in [11], in experiment [12] and in experiment [13] was less than 100 nM in each case. Moreover, the “Daudi (T/C %) cell proliferation suppression activity” value in experiment [2] is less than 70%. Besides, the “U937 (T/C %) cell proliferation suppression activity” value in experiment [7] is given as less than 70%. Moreover, the “T/C % (relative tumor volume, test group vs control group)” value in [14] is recorded as less than 50%.

Broadly, the IC50 is the concentration that inhibits the measured activity by half.
